Measurements as given in US20240342167A1, “INHIBITORS OF PORCINE REPRODUCTIVE AND RESPIRATORY SYNDROME VIRUS” (University of Connecticut, priority 2023, published 2024).
“Also recorded” adds a separate entry of the source.

Columns and labels:
GFP [1] = biological target: T1, GFP; assay: Microscale thermophoresis (MST) assay: association of B7 with purified GFP (control protein); assay type: binding; details: Monolith NT.115, blue channel, GFP alone (control), values represent Mean, N=3
T1 construct: made in house
Procedure: Values represent Mean, N=3.
(§1) The recombinant pET28b-GFP-SRCR2/SRCR5 constructs were transformed into Escherichia coli strain BL21 (DE3) (New England Biolabs, MA, USA). The transformed clones were cultured at 37° C. in LB broth with […] kanamycin, induced by adding 1 mM isopropyl β-D-1-thiogalactopyranoside at optical density of 0.6-0.8, and then incubated at 37° C. for 3 h. For protein purification, cells were pelleted and resuspended in xTractor Buffer containing DNAse I, lysozyme solution, and Protease Inhibitor Cocktail (Takara Bio USA, Inc., CA). The suspension was sonicated and centrifuged. The supernatant was incubated with equilibrated TALON Metal Affinity Resin (Takara Bio USA, Inc., CA, USA) and then were eluted from resin with the elution buffer (pH 7.0, 150 mM imidazole, 50 mM NaH2PO4, and 300 mM NaCl). The eluted proteins were concentrated and with buffer exchanged to phosphate-buffered saline (pH 7.4) containing 0.05% Tween-20 (PBST) using Protein Concentrator PES, 10 kD MWCO (Pierce Biotechnology, PA, USA).
(§2) The purified GFP, GFP-fused SRCR2 or SRCR5 proteins were mixed with serially diluted compounds. The mixtures were loaded to capillaries and the affinity was measured by Monolith NT.115 (NanoTemper Technologies, Inc., CA, USA) at corresponding MST power with the blue channel. […]

[2] = biological target: T2, PPI between PRRSV glycoprotein GP2a and CD163-SRCR5 (Sus scrofa, UniProt Q2VL90); assay: BiFC assay GP2a/SRCR5; assay type: cell-based, porcine CD163; PRRSV VR2332; details: for Average GP2a (relative fluorescence intensity, SRCR5/GP2a BiFC): 5 μM, HEK293T, 24 h after transfection, relative to NC (DMSO) = 1.00, n=3, 5 µM
T2 construct: SRCR5 domain of porcine CD163 receptor was amplified from cDNA of pig cells; expressed in transfected cells; host or cells: HEK293T
T2 sequence (Q2VL90 477-577): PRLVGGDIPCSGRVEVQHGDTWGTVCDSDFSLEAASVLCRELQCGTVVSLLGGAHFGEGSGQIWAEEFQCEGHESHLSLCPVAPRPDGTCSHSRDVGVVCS
Procedure: (§3) HEK293T cells were cultivated in 6-well plates in FP medium and transfected with 1 μg XpBiFC-VN155 (I152L)-SRCR5 and 1 μg pBiFC-VC155-GP2/GP4 using Fugene6. After 4 h, cells were digested with 0.05% Typsin-EDTA (ThermoFisher Scientific, MA, USA)) and passaged to 48-well plates which were coated with EmbryoMax 0.1% Gelatin Solution (Sigma-Aldrich, MO, USA) and preloaded with 5 μM B7 analogues. Fluorescence images were taken at 24 h after transfection and fluorescence intensity was measured by image J.

[3] = biological target: T3, PPI between PRRSV GP4 and CD163-SRCR5 domain (Sus scrofa, UniProt Q2VL90); assay: BiFC assay GP4/SRCR5; assay type: cell-based, porcine CD163; PRRSV VR2332; details: for Average GP4 (relative fluorescence intensity, SRCR5/GP4 BiFC): 5 μM, HEK293T, 24 h after transfection, relative to NC (DMSO), n=3, 5 µM
T3 construct: SRCR5 domain of porcine CD163 receptor was amplified from cDNA of pig cells; expressed in transfected cells; host or cells: HEK293T
T3 sequence (Q2VL90 477-577): as above
Procedure: as §3

GFP-fusion CD163-SRCR5 = biological target: T4, GFP-fusion CD163-SRCR5 (Sus scrofa, UniProt Q2VL90); assay: Microscale thermophoresis (MST), GFP-SRCR5; assay type: binding, porcine; details: read-out: dissociation constant (Kd)
T4 construct: The purified GFP, GFP-fused SRCR2 or SRCR5 proteins were mixed with serially diluted compounds; made in house; host or cells: Escherichia coli BL21 (DE3)
T4 sequence (Q2VL90 477-577 limits assumed): as the sequence (Q2VL90 477-577) above
Procedure: as §1
(§4) The purified GFP, GFP-fused SRCR2 or SRCR5 proteins were mixed with serially diluted compounds. The mixtures were loaded to capillaries and the affinity was measured by Monolith NT.115 (NanoTemper Technologies, Inc., CA, USA) at corresponding MST power with the blue channel.

GFP-fusion CD163-SRCR2 = biological target: T5, GFP-fusion CD163-SRCR2 (Sus scrofa, UniProt Q2VL90); assay: Microscale thermophoresis (MST), GFP-SRCR2; assay type: binding, porcine
T5 construct: The purified GFP, GFP-fused SRCR2 or SRCR5 proteins were mixed with serially diluted compounds; made in house; host or cells: Escherichia coli BL21 (DE3)
T5 sequence (Q2VL90 158-258 limits assumed): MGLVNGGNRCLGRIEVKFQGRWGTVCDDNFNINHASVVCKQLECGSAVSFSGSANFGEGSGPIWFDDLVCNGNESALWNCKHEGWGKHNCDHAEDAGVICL
Procedure: as §1, §4

GFP [4] = assay: Microscale thermophoresis (MST), GFP; assay type: binding
Procedure: as §1, §4

[5] = biological target: T6, GFP-fusion CD163-SRCR5 (GFP-fused SRCR5 domain of porcine CD163, recombinant, expressed in E. coli BL21 (DE3)) (Sus scrofa, UniProt Q2VL90); assay: Microscale thermophoresis (MST) assay: direct association of compounds with purified GFP-fused CD163-SRCR5; assay type: binding; details: Monolith NT.115, blue channel, values represent Mean, N=3
T6 construct: GFP and GFP-SRCR2 as controls
T6 sequence (Q2VL90 477-577 limits assumed): as the sequence (Q2VL90 477-577) above
Procedure: The amino acids within the LBP and loop 5-6 regions are underlined. […] B7 was placed in position 1 (Boxes) to show the potential disturbing of both conformations. […] B7 was placed in position 2 (Box) to show the potential disturbing of this conformation. […] Values represent Mean, N=3. […] Values represent Mean, N=3. […] Values represent Mean, N=3.
All chemicals (dissolved in 10 mM in DMSO) were designed and provided by Atomwise, Inc. (CA, USA). Compounds were further diluted in PBS (137 mM NaCl, 2.7 mM KCl, 8 mM Na2HPO4, and 2 mM KH2PO4, pH 7.4, Gibco, MA, USA) to 200 μM as the working solution. Pulmonary alveolar macrophages (PAMs) were harvested from healthy 4-6-month Landrace/Yorkshire pigs. Briefly, pig lungs were removed from euthanized pigs during necropsy and transferred on ice to the lab. 200 mL warm PBS with 200 U/mL penicillin and 200 μg/mL streptomycin was injected into trachea and reached major bronchi of both sides of the lungs. Lungs were then massaged and bronchoalveolar lavage fluid (BALF) was collected. PAMs were harvested from the BALF by centrifugation at 400×g for 15 min and washed in PBS twice. Fresh PAMs were counted and frozen in 90% FBS and 10% DMSO (Sigma-Aldrich, MO) in liquid nitrogen. PAMs were cultivated in RPMI-1640 (Gibco, MA) supplemented with 10% FBS, 2 mM Glutamax, 0.1 mM MEM Non-Essential Amino Acids, 1 mM sodium pyruvate, 100 U/mL penicillin and 100 μg/mL streptomycin, and 0.5 μg/mL Amphotericin B. SRCR5 domain of porcine CD163 receptor was amplified from cDNA of pig cells and inserted into pBiFC-VN155 (I152L). PRRSV GP2a and GP4 were amplified from reverse-transcribed genome of PRRSV VR2332 strain and cloned into pBiFC-VC155 vector as previously described (Huang et al., Virol J 17, 116, 2020). Porcine CD163 was cloned into pMXs vector (Cell Biolabs, CA, USA). For protein purification, […] were cloned into pET28b-GFP (Addgene, MA, USA).
The recombinant pET28b-GFP-SRCR2/SRCR5 constructs were transformed into Escherichia coli strain BL21 (DE3) (New England Biolabs, MA, USA). The transformed clones were cultured at 37° C. in LB broth with […] kanamycin, induced by adding 1 mM isopropyl β-D-1-thiogalactopyranoside at optical density of 0.6-0.8, and then incubated at 37° C. for 3 h. For protein purification, cells were pelleted and resuspended in xTractor Buffer containing DNAse I, lysozyme solution, and Protease Inhibitor Cocktail (Takara Bio USA, Inc., CA). The suspension was sonicated and centrifuged. […]
as §2

SMILES: Cc1cc(F)ccc1S(=O)(=O)Nc1nc2ccccc2nc1Nc1cccc(S(=O)(=O)N2CCOCC2)c1 [Compound B7]
- Kd (GFP [1]): 2110 µM

SMILES: Cc1cc(F)ccc1S(=O)(=O)Nc1nc2ccccc2nc1Nc1cccc(S(=O)(=O)N2CCOCC2)c1 [B7]
- Average GP2a (relative fluorescence intensity, SRCR5/GP2a BiFC) ([2]; listed as H5, 1440 min): 0.15
- Average GP2a (relative fluorescence intensity, SRCR5/GP2a BiFC) ([2]; listed as PC, 1440 min): 0.02
- inhibition of the PPI between PRRSV GP2a and CD163 SRCR5 (in words) ([2]; positive control): significantly inhibited
- Average GP4 (relative fluorescence intensity, SRCR5/GP4 BiFC) ([3]; listed as H5, 1440 min): 0.06
- Average GP4 (relative fluorescence intensity, SRCR5/GP4 BiFC) ([3]; listed as PC, 1440 min): 0.24
- inhibition at 5 µM ([3]; HEK-293T, read-out: reduction of the YFP fluorescence signal compared with NC (inhibition in GP4/SRCR5 BiFC)): > 70%
- Kd (GFP-fusion CD163-SRCR5): 32 µM
- association with GFP-SRCR2 (in words) (GFP-fusion CD163-SRCR2): little or no association; also recorded: did not interact
- association with GFP (in words) (GFP [4]): little or no association

SMILES: Cc1ccc(S(=O)(=O)Nc2nc3ccccc3nc2Nc2cccc(S(=O)(=O)N3CCCCC3)c2)cc1 [Compound B7-A4]
- Kd [5]: 22.9 µM
